Patent publication US6653318B1, “5-(E)-Bromovinyl uracil analogues and related pyrimidine nucleosides as anti-viral agents and methods of use” (Yale University, priority 1999, dated 2003)
Read-outs that look alike come from different tables or passages of the source.

Key:
[1] = Cell cytotoxicity assay, cell growth; format: cell-based; conditions: human; CEM cells, three-day growth, 50% inhibition of cell growth
Experimental: (§1) Cell Cytotoxicity Assay. CEM cells are grown at 2.5×10^4 Cells per ml in RPM1 media supplemented with 20% dialyzed FBS. When cells double, they are seeded in 24-well plates at 1 ml/well. The tested drugs are added at various diluted dosage. After three-day growth at 37° C., 5% CO2, the cells are harvested and counted by using Coulter counter. Cytotoxicity IC50 is designated as the dosage that inhibits 50% of the cell growth compared to the untreated controls.

HSV-1 = assay: Virus growth inhibition assay, HSV plaque reduction; format: cell-based, Herpes Simplex virus
Experimental: (§2) Virus growth inhibition assay. Confluent virus permissive cells in 12-well plates are inoculated with the virus at 30˜40 pfu/well. After one-hour adsorption at 37° C., the inoculum is replaced with the medium containing 10% of dialyzed FBS and tested compounds at various dosages. Each dosage is duplicated. The infected cells are harvested at 72-hour postinfection. For HSV virus, the plaque reduction assay is performed to measure the virus growth. ID50 is designated as the dosage that inhibits 50% of plaque formation compared with untreated controls. For VZV and EBV, the infected cells are lysed by “freeze-thaw” and the lysate is treated with protease K and RNase. The DNA is then subjected to slot-blot as described previous (Yao, et al., Biochem. Pharmacol. 51: 941-947). The viral DNA is detected by hybridization with ^32P-labeled DNA fragment of viral specific gene. Autoradiographic results are quantitated by Personal Densitometer SI (Molecular Dynamics., Sunnyvale, Calif.). The same membrane is stripped and rehybridized with human β-actin gene fragment. The viral DNA amount is subsequently normalized by viral DNA/human actin DNA. The concentration of the tested compounds, which inhibit 50% of viral DNA synthesis compared to untreated control, is defined as IC50.

VZV = assay: Virus growth inhibition assay, VZV viral DNA slot-blot; format: cell-based, Varicella-Zoster virus; conditions: read-out: IC50 VZV
Experimental: Virus growth inhibition assay. Confluent virus permissive cells in 12-well plates are inoculated with the virus at 30˜40 pfu/well. After one-hour adsorption at 37° C., the inoculum is replaced with the medium containing 10% of dialyzed FBS and tested compounds at various dosages. Each dosage is duplicated. The infected cells are harvested at 72-hour postinfection. For HSV virus, the plaque reduction assay is performed to measure the virus growth. […] For VZV and EBV, the infected cells are lysed by “freeze-thaw” and the lysate is treated with protease K and RNase. […] The viral DNA is detected by hybridization with ^32P-labeled DNA fragment of viral specific gene. Autoradiographic results are quantitated by Personal Densitometer SI (Molecular Dynamics., Sunnyvale, Calif.). The same membrane is stripped and rehybridized with human β-actin gene fragment. The viral DNA amount is subsequently normalized by viral DNA/human actin DNA.

[2] = system: FU catabolite amino acids; assay: FU metabolites by 19F-NMR in mice after pretreatment with BV analog; format: in vivo; conditions: BDF1 mice, 20 mg/kg p.o. two hours before FU 200 mg/kg i.p., one hour after FU
Experimental: Two hours after injection, 5-Flurouracil (FU) at a concentration of 200 mg/kg was administered i.p. […] Consequently, the coadministration of any one or more of the β-L nucleoside compounds along with FU or an FU produrg in the treatment of cancer to enhance the effectiveness of these agents is meritorious and unexpected.

[3] = in humans; generally ranging from about 20-30 minutes; cited from earlier work
CEM cells = assay: Cell cytotoxicity assay, cell growth; format: cell-based; conditions: three-day growth, 50% inhibition of cell growth
Experimental: as §1

EBV = assay: Anti-EBV activity, EBV DNA slot blot in H1 cells; format: cell-based, Epstein Barr virus; conditions: concentration that inhibits 50% of virus growth, 5 days
Experimental: as §2
A high yield of EBV producing cell line H1 derived from human P3HR1 cells was used in this study. Cells were cultured in RPMI medium supplemented with 10% dialyzed fetal bovine serum and 100 μg/ml Kanamycin and were grown at 37° C. in a humidified incubator containing 5% CO2.
H1 cells were maintained in logarithmic phase of growth for two days prior to the initiation of treatment. The H1 cells were seeded in 24 well plates at the density of 2×10^5 cells per well in 2 ml of fresh medium with or without drug treatment and were incubated at 37° C. for 5 days. Following the period of drug treatment the cells were pelleted and used to determine the inhibitory effect of drug on EBV DNA by slot blot assay.
A total of 4×10^5 H1 cells treated with the various nucleoside analogs (as set forth below) were lysed in 400 μl of 10 mM Tris-HCl (pH 7.5) solution by freezing and thawing 3 times. The cell lysate was treated with RNAase A (at a final concentration of 50 μg/ml) at 37° C. for 30 minutes and then with proteinase K (at a final concentration of 100 μg/ml) at 55° C. for 2 hr. The samples were denatured by adjusting the final concentration to 0.4N NaOH/10 mM EDTA at pH 8.2. After heating for 10 minutes in a water bath at 100° C., the samples were spotted onto positively charged nylon membrane using a manifold. […] The amount of EBV DNA in treated H1 cells was determined according to the ratio of EBV DNA to Alu DNA in comparison with non-treatment control H1 cells. […]

[4] = Human alphaherpesvirus 1, concentration that inhibits 50% of virus growth
[5] = Human alphaherpesvirus 3, concentration that inhibits 50% of virus growth, viral DNA, 72-hour postinfection
[6] = concentration that inhibits 50% of virus growth, viral DNA, 72-hour postinfection
[7] = concentration that inhibits 50% of virus growth
[8] = human gammaherpesvirus 4, 120 h

Q: Which IC50 at 3 days [1] does the source give for `Nc1nc2c(ncn2COCCO)c(=O)[nH]1` [Acyclovir, reference compound] here?
A: > 100 µM

Q: And the IC50 (HSV-1; [4])?
A: 13.6 µM

Q: For `O=c1[nH]c(=O)n([C@H]2C[C@H](O)[C@@H](CO)O2)cc1/C=C/Br` [D-BVDU, (E)-5-(2-bromovinyl)-2′-deoxyuridine, reference compound], which IC50 at 3 days [1] is on record?
A: > 100 µM

Q: What about the IC50 (VZV; Human alphaherpesvirus 3, 72 h) of the same compound?
A: 0.05 µM

Q: For `O=c1[nH]c(=O)n([C@@H]2O[C@H](CO)[C@@H](O)[C@@H]2O)cc1/C=C/Br` [D-ara-BVU, 1-β-D-arabinofuranosyl-(E)-5-(2-bromovinyl)uracil, reference compound], which IC50 at 3 days [1] is on record?
A: > 100 µM

Q: What about the “effect on FU catabolite amino acids / break-down of FU (in words)” value [2] of the same compound?
A: decreased from catabolite amino acids

Q: What about the IC50 (VZV; [5]) of the same compound?
A: 0.0007 µM

Q: With `O=c1[nH]c(=O)n([C@@H]2CO[C@@H](CO)O2)cc1/C=C/Br` [D-α-BVOddU, (2R,5S)-E-5-(2-Bromovinyl)-1-[2-(hydroxymethyl)-1,3-dioxolan-5-yl]uracil] as the compound, how does the IC50 at 3 days [1] read?
A: > 100 µM

Q: What about the IC50 (VZV; [5]) of the same compound?
A: > 30 µM

Q: And the IC50 (HSV-1; [4])?
A: > 50 µM

Q: For `O=c1[nH]c(=O)n([C@H]2CO[C@@H](CO)O2)cc1/C=C/Br` [D-β-BVOddU, (2R,5R)-E-5-(2-Bromovinyl)-1-[2-(hydroxymethyl)-1,3-dioxolan-5-yl]uracil], which IC50 at 3 days [1] is on record?
A: > 100 µM

Q: What about the IC50 (VZV; [5]) of the same compound?
A: 26 µM

Q: And the IC50 (HSV-1; [4])?
A: > 50 µM

Q: With `O=c1[nH]cc(F)c(=O)[nH]1` [FU, 5-fluorouracil] as the compound, how does the “half-life of FU” value [3] read?
A: approximately 25 minutes

Q: With `O=c1[nH]c(=O)n([C@H]2O[C@@H](CO)[C@H](O)[C@@H]2F)cc1/C=C/Br` [L-BV2′F-dU, E-5-(2-Bromovinyl)-1-(2-deoxy-2-fluoro-β-L-ribofuranosyl) uracil] as the compound, how does the IC50 at 3 days [1] read?
A: > 100 µM

Q: What about the IC50 (VZV; [5]) of the same compound?
A: > 30 µM

Q: What about the IC50 (HSV-1; [4]) of the same compound?
A: > 50 µM

Q: For `O=c1[nH]c(=O)n([C@@H]2C[C@@H](O)[C@H](CO)O2)cc1/C=C/Br` [L-BVDU, E-5-(2-Bromovinyl)-2′-deoxy-L-uridine], which IC50 (CEM cells) is on record?
A: > 100 µM

Q: And the IC50 (VZV; [6])?
A: > 100 µM

Q: With `O=c1[nH]c(=O)n([C@@H]2CO[C@H](CO)O2)cc1Br` [L-BrOddU, reference compound] as the compound, how does the IC50 (CEM cells) read?
A: > 100 µM

Q: What about the IC50 (VZV; [6]) of the same compound?
A: > 30 µM

Q: And the IC50 (EBV)?
A: 0.2 µM

Q: What about the IC50 (HSV-1; [7]) of the same compound?
A: > 100 µM

Q: Which results are given for `O=c1[nH]c(=O)n([C@@H]2CO[C@H](CO)O2)cc1I` [L-IOddU, reference compound]?
A: IC50 (CEM cells): > 100 µM; IC50 (VZV; [6]): 17 µM; IC50 (EBV): 0.1 µM; IC50 (HSV-1; [7]): 70 µM

Q: Which results are given for `O=c1[nH]c(=O)n([C@H]2CO[C@H](CO)O2)cc1/C=C/Br` [L-α-BVOddU, (2S,5R)-E-5-(2-Bromovinyl)-1-[2-(hydroxymethyl)-1,3-dioxolan-5-yl]uracil]?
A: IC50 at 3 days [1]: > 100 µM; IC50 (VZV; [5]): > 30 µM; IC50 (HSV-1; [4]): > 50 µM

Q: Which results are given for `O=c1[nH]c(=O)n([C@H]2CO[C@H](CO)O2)cc1/C=C/Cl` [L-α-ClVOddU, (2S,5R)-E-5-(2-Chlorovinyl)-1-[2-(hydroxymethyl)-1,3-dioxolan-5-yl]uracil]?
A: IC50 at 3 days [1]: > 100 µM; IC50 (VZV; [5]): > 30 µM; melting point: 101 to 102 °C; IC50 (HSV-1; [4]): > 50 µM

Q: With `O=c1[nH]c(=O)n([C@H]2CO[C@H](CO)O2)cc1/C=C/I` [L-α-IVOddU, (2S,5R)-E-5-(2-Iodovinyl)-1-[2-(hydroxymethyl)-1,3-dioxolan-5-yl]uracil] as the compound, how does the IC50 at 3 days [1] read?
A: > 100 µM

Q: What about the IC50 (VZV; [5]) of the same compound?
A: > 30 µM

Q: And the melting point?
A: 60 °C (dec.)

Q: What about the IC50 (HSV-1; [4]) of the same compound?
A: > 50 µM

Q: What does the source list for `O=c1[nH]c(=O)n([C@@H]2CO[C@H](CO)O2)cc1/C=C/Br` [L-β-BVOddU, (2S,5S)-E-5-(2-Bromovinyl)-1-[2-(hydroxymethyl)-1,3-dioxolan-5-yl]uracil]?
A: IC50 at 3 days [1]: > 100 µM; inhibition of FU catabolite amino acids [2]: ~100%; IC50 (VZV; [5]): 0.07 µM; IC50 (HSV-1; [4]): 36 µM

Q: What does the source list for `O=c1[nH]c(=O)n([C@@H]2CS[C@H](CO)O2)cc1/C=C/Br` [L-β-BVSddU, (2R,5S)-E-5-(2-Bromovinyl)-1-(2-hydroxymethyl-1,3-oxathiolan-5-yl)uracil]?
A: IC50 at 3 days [1]: > 100 µM; IC50 (VZV; [5]): 12.5 µM; IC50 (EBV; [8]): > 50 µM

Q: Which IC50 at 3 days [1] does the source give for `O=c1[nH]c(=O)n([C@@H]2CO[C@H](CO)O2)cc1/C=C/Cl` [L-β-ClVOdd, (2S,5S)-E-5-(2-Chlorovinyl)-1-[2-(hydroxymethyl)-1,3-dioxolan-5-yl]uracil] here?
A: > 100 µM

Q: And the IC50 (VZV; [5])?
A: 0.15 µM

Q: What about the IC50 (HSV-1; [4]) of the same compound?
A: 18 µM

Q: What does the source list for `O=c1[nH]c(=O)n([C@@H]2CO[C@H](CO)O2)cc1/C=C/I` [L-β-IVOddU, (2S,5S)-E-5-(2-Iodovinyl)-1-[2-(hydroxymethyl)-1,3-dioxolan-5-yl]uracil]?
A: IC50 at 3 days [1]: > 100 µM; IC50 (VZV; [5]): 0.035 µM; melting point: 162 °C (dec.); IC50 (EBV; [8]): 4.1 µM; IC50 (HSV-1; [4]): 33 µM

Q: For `Nc1nc(O)c2ncn(CCC(CO)CO)c2n1` [Pencyclovir, reference compound], which IC50 (CEM cells) is on record?
A: > 100 µM

Q: And the IC50 (VZV; [6])?
A: 0.14 µM

Q: And the IC50 (HSV-1; [7])?
A: 18 µM
